The target in the experiment is Hypoxia-inducible factor 1-alpha (Homo sapiens, UniProt Q16665). The experiment is described as follows: Inhibition of HIF-1alpha in human HeLa cells after 6 hrs by luciferase reporter gene assay. On the technique in general: A reporter such as luciferase makes a cellular process visible.
Sequence of Hypoxia-inducible factor 1-alpha (Q16665 whole entry): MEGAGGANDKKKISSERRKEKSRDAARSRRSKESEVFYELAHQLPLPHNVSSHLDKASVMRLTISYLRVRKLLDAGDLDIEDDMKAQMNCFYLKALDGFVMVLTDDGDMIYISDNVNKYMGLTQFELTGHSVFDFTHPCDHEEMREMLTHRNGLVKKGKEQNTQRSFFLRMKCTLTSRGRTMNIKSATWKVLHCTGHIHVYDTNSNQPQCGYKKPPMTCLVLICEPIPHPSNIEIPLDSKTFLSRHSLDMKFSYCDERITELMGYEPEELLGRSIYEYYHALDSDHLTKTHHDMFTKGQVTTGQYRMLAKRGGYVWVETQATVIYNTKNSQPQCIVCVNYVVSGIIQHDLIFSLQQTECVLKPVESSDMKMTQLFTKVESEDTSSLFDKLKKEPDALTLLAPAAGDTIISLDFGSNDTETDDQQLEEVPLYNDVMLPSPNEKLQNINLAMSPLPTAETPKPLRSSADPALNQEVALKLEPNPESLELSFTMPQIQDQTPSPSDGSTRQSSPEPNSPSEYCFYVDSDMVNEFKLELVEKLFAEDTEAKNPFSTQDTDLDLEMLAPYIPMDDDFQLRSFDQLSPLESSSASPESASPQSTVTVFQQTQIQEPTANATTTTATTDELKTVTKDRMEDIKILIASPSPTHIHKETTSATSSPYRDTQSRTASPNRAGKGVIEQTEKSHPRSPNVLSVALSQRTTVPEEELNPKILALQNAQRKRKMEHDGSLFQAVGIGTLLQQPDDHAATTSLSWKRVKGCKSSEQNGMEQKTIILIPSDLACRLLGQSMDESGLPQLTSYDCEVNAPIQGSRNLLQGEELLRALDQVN

In general, IC50 refers to the concentration that gives 50% inhibition. Read a low IC50 as greater potency. `Cc1ccc(C(=O)COC(=O)c2cccc(NC(=O)c3ccc([N+](=O)[O-])cc3[N+](=O)[O-])c2)cc1` [3-[[(2,4-dinitrophenyl)-oxomethyl]amino]benzoic acid [2-(4-methylphenyl)-2-oxoethyl] ester] displayed a half-inhibitory concentration (IC50) of 2.6 µM.

(Values after BindingDB's records for doi:10.1021/acs.jmedchem.8b01596 (China Pharmaceutical University, 2019).)
